# Data published in patent publication US10221179B2, “Substituted pyrazoloquinazolinones and pyrroloquinazolinones as allosteric modulators of group II metabotropic glutamate receptors” (DOMAIN THERAPEUTICS, priority 2014, dated 2019).
# Assays:
# human mGluR2 (hmGluR2) = molecular target: T1, human mGluR2 (hmGluR2) (Homo sapiens, UniProt Q14416); assay: Ca++ functional assay, human mGluR2 transiently over-expressed in HEK-293 cells (agonist and negative allosteric modulator modes); format: cell-based; settings: glutamate at EC80, intracellular calcium (Fluo4AM), read-out: hmGluR2 negative allosteric modulator activity IC50
# T1 construct: expressed in transfected cells; host or cells: HEK-293 cells, transient co-transfection by electroporation
# T1 sequence (Q14416 19-872): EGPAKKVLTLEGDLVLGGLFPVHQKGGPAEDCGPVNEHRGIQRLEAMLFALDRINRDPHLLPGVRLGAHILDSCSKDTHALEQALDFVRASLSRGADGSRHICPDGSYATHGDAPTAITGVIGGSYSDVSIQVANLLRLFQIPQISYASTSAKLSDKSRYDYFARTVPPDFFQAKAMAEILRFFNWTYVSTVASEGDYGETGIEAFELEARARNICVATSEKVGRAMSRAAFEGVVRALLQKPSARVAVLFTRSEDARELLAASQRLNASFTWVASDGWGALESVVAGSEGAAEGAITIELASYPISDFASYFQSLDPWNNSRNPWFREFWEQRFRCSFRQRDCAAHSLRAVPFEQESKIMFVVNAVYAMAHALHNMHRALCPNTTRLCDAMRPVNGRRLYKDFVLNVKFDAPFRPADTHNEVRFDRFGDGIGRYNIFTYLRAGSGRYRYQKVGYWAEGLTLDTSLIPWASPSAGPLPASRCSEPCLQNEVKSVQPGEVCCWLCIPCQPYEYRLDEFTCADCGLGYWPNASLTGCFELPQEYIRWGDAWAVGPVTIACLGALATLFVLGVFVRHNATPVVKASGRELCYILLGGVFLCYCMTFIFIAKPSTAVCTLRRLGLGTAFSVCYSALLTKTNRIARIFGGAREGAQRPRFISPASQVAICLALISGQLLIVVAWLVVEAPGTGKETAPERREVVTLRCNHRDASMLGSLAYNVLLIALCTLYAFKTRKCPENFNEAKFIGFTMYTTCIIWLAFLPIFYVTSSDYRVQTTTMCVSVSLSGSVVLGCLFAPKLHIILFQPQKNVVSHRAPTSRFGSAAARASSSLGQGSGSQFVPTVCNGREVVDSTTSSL
# Experimental: Example 127: Human mGluR2 and mGluR3 Evaluation Using Ca^++ Functional Assay
# Examples of the present invention were tested successively for their agonist and negative allosteric modulator activities on human mGluR2 (hmGluR2) and mGluR3 (hmGluR3) transiently over-expressed in HEK-293 cells.
# Cell Culture and Transfection
# HEK-293 cells are maintained in Modified Eagle's Medium supplemented with 10% Foetal Calf Serum, 1% Penicillin/Streptomycin and 1% non-essential amino acids at 37° C./5% CO2.
# Cells are co-transfected by electroporation with four DNA plasmids encoding hmGluR2 or hmGluR3, a chimeric G protein allowing redirection of the activation signal to intracellular calcium pathway (Brabet I et al., Neuropharmacology 37(8), 1043-51, 1998), and two glutamate transporters minimizing receptor desensitization by endogenous glutamate. After transfection, cells are cultured for 24 h at 37° C./5% CO2.
# Calcium Assay IC50 Determination
# Receptor activity is detected by changes in intracellular calcium measured using the fluorescent Ca^2+ sensitive dye, Fluo4AM (Molecular Probes).
# On the day of the assay, culture medium is aspirated and replaced during 3 hours by medium without serum supplemented with 1% Glutamax, 1% Penicillin/Streptomycin and 1% non-essential amino acids. Then, cells are washed with freshly prepared buffer B (HBSS 1×(PAA), Hepes 20 mM, MgSO4-7H2O 1 mM, Na2CO3 3.3 mM, CaCl2-2H2O 1.3 mM, 0.1% BSA, Probenecid 2.5 mM) and loaded at 37° C. in 5% CO2 for 1.5 hours with buffer B containing 1 μM Fluo4AM, 0.1 mg/mL Pluronic Acid, 7 μg/mL Glutamate Pyruvate Transaminase and 2 mM sodium pyruvate. Afterwards cells are washed twice with buffer B. Then cells are detached using StemPro Accutase (Fischer Scientific), resuspended in buffer B and seeded in 384 well plate at a density of 30,000 cells per well. Addition of compounds and intracellular Ca^2+ measurements (excitation 485 nm, emission 525 nm) are performed by the fluorescence microplate reader FLIPRTetra (Molecular Devices).
# Agonist and negative allosteric modulator activities of compounds are consecutively evaluated on the same cell plate. […] Then, cells are stimulated by an EC80 glutamate concentration and fluorescence is recorded for additional 3 minutes. EC80 glutamate concentration is the concentration giving 80% of the maximal glutamate response. Agonist or negative allosteric modulator activity(ies) are evaluated in comparison to basal signals evoked by buffer B or EC80 glutamate alone, respectively.
# For IC50 determination, a dose-response test is performed using 20 concentrations (ranging over 6 logs) of each compound. Dose-response curves are fitted using the sigmoidal dose-response (variable slope) analysis in GraphPad Prism program (Graph Pad Inc) and IC50 of negative allosteric modulator activity is calculated. Dose-response experiments are performed in duplicate, two times independently.
compound,measurement,setting,value
"Cc1cc(-c2cc3n(C)c(=O)c4ccccc4n3n2)ccn1 [Example 2, 4-methyl 2-(2-methyl-pyridin-4-yl)-4H-pyrazolo[1,5-a]quinazolin-5-one]",IC50,human mGluR2 (hmGluR2),< 1000 nM
"C=C(C)c1cc(-c2cc3n(C)c(=O)c4ccccc4n3n2)ccn1 [Example 10, 2-(2-Isopropenyl-pyridin-4-yl)-4-methyl-4H-pyrazolo[1,5-a]quinazolin-5-one]",IC50,human mGluR2 (hmGluR2),< 1000 nM
Cn1c(=O)c2cc(Cl)ccc2n2nc(-c3ccnc(C(F)(F)F)c3)cc12 [Example 35],IC50,human mGluR2 (hmGluR2),< 1000 nM
Cn1c(=O)c2cc(Br)ccc2n2nc(-c3ccnc(C(F)(F)F)c3)cc12 [Example 39],IC50,human mGluR2 (hmGluR2),< 1000 nM
"Cn1c(=O)c2ccc(Cl)cc2n2nc(-c3ccnc(C(F)(F)F)c3)cc12 [Example 56, 8-Chloro-4-methyl-2-(2-trifluoromethyl-pyridin-4-yl)-4H-pyrazolo[1,5-a]quinazolin-5-one]",IC50,human mGluR2 (hmGluR2),< 1000 nM
"Cn1c(=O)c2ccc(Br)cc2n2nc(-c3ccnc(C(F)(F)F)c3)cc12 [Example 58, 8-Bromo-4-methyl-2-(2-trifluoromethyl-pyridin-4-yl)-4H-pyrazolo[1,5-a]quinazolin-5-one]",IC50,human mGluR2 (hmGluR2),< 1000 nM
"CN(C)C(=O)c1ccc2c(=O)n(C)c3cc(-c4ccnc(C(F)(F)F)c4)nn3c2c1 [Example 79, 4-Methyl-5-oxo-2-(2-trifluoromethyl-pyridin-4-yl)-4,5-dihydro-pyrazolo[1,5-a]quinazoline-8-carboxylic Acid Dimethylamide]",IC50,human mGluR2 (hmGluR2),< 1000 nM
"CNc1cc2c(=O)n(C)c3cc(-c4ccnc(C(F)(F)F)c4)nn3c2cc1OC [Example 94, 8-Methoxy-4-methyl-7-methylamino-2-(2-trifluoromethyl-pyridin-4-yl)-4H-pyrazolo[1,5-a]quinazolin-5-one]",IC50,human mGluR2 (hmGluR2),< 1000 nM
"Cn1c(=O)c2cc(Cl)ccc2n2nc(-c3ccnc(Cl)c3)cc12 [Example 95, 7-Chloro-2-(2-chloro-pyridin-4-yl)-4-methyl-4H-pyrazolo[1,5-a]quinazolin-5-one]",IC50,human mGluR2 (hmGluR2),< 1000 nM
Cn1c(=O)c2cc(Cl)ccc2n2nc(-c3ccnc(C4CC4)c3)cc12 [Example 96],IC50,human mGluR2 (hmGluR2),< 1000 nM
"Cn1c(=O)c2cc(Cl)ccc2n2nc(-c3ccnc(OCC(F)(F)F)c3)cc12 [Example 98, 7-Chloro-4-methyl-2-[2-(2,2,2-trifluoro-ethoxy)-pyridin-4-yl]-4H-pyrazolo[1,5-a]quinazolin-5-one]",IC50,human mGluR2 (hmGluR2),< 1000 nM
"COc1ccc2c(c1)c(=O)n(C)c1cc(-c3ccnc(Cl)c3)nn21 [Example 99, 2-(2-Chloro-pyridin-4-yl)-7-methoxy-4-methyl-4H-pyrazolo[1,5-a]quinazolin-5-one]",IC50,human mGluR2 (hmGluR2),< 1000 nM
"COc1ccc2c(c1)c(=O)n(C)c1cc(-c3ccnc(C4CC4)c3)nn21 [Example 100, 2-(2-Cyclopropyl-pyridin-4-yl)-7-methoxy-4-methyl-4H-pyrazolo[1,5-a]quinazolin-5-one]",IC50,human mGluR2 (hmGluR2),< 1000 nM
"Cc1cc(-c2cc3n(C)c(=O)c4ccccc4n3n2)cc(Cl)n1 [Example 105, 2-(2-Chloro-6-methyl-pyridin-4-yl)-4-methyl-4H-pyrazolo[1,5-a]quinazolin-5-one]",IC50,human mGluR2 (hmGluR2),< 1000 nM
"Cn1c(=O)c2cc(F)c(N3CCC34CCC(CO)CC4)cc2n2nc(-c3ccnc(C(F)(F)F)c3)cc12 (centres unmarked) [Example 123, 7-Fluoro-8-(7-hydroxymethyl-1-aza-spiro[3.5]non-1-yl)-4-methyl-2-(2-trifluoromethyl-pyridin-4-yl)-4H-pyrazolo[1,5-a]quinazolin-5-one]",melting point,,> 250 °C
"Cn1c(=O)c2ccc(N3CCCC(O)C3)cc2n2nc(-c3ccnc(C(F)(F)F)c3)cc12 (centres unmarked) [Example 124, 8-(3-Hydroxy-piperidin-1-yl)-4-methyl-2-(2-trifluoromethyl-pyridin-4-yl)-4H-pyrazolo[1,5-a]quinazolin-5-one]",melting point,,> 250 °C
"Cn1c(=O)c2ccc(NCC(C)(C)O)cc2n2nc(-c3ccnc(C(F)(F)F)c3)cc12 [Example 126, 8-(2-Hydroxy-2-methyl-propylamino)-4-methyl-2-(2-trifluoromethyl-pyridin-4-yl)-4H-pyrazolo[1,5-a]quinazolin-5-one]",melting point,,> 250 °C
